Experimental data published in US20180353501A1 (Arvinas, Inc., priority 2017, published 2018).

Experiments:
Assay type in all cases: cell-based
cMET = biological target: T1, cMET (Homo sapiens, UniProt P08581); assay: Cellular assay of target protein degradation (MDA-MB-231 cells, ELISA)
T1 construct: endogenous in cells; host or cells: MDA-MB-231
Method: (§1) Protocol of the cellular assay of target protein degradation (MDA-MB-231 cells, ELISA).
(§2) For detection Cell Signaling PathScan Sandwich ELISA Catalog#12850 was used. MDA-MB-231 cells and […] were cultured in ATCC DMEM+ATCC FBS and plated 40,000/well 100 μl/well in RPMI P/S with 5% CSS Omega (bovine) serum into a 96 well plate. The cells were grown for a minimum of 3 days, dosed with compounds in 0.1% DMSO (diluted with 5% CSS) and incubated with aspiration for 4 hours. 100 μl of 1× Cell Signaling lysis buffer #9803 (36 mL dH2O+4 mL Cell Signaling lysis buffer) was added. The incubation was placed on cold room shaker for 10 minutes at speed 8-9.5 μl to 100 μL of Diluent was transferred to ELISA plate (0.15 μg/mL-0.075 μg/mL) and stored at 4° C. overnight on cold room shaker speed 5 (gentle swirl) and then shaken next morning at 37° C. for 30 minutes. The preparation was washed 4×200 μl with ELISA wash buffer and aspirated with eight-channel aspirator. 100 μl/well of target protein detection antibody was added after, which the preparation was covered and shaken at 37° C. for 1 hour. 100 μl TMB was added, and the mixture was shaken for 5 min while under observation. When TMB turned light blue, 100 μl of Stop solution was added, and the mixture was shaken and read at 450 nm. Also read at 562 nm for background subtraction.

p38α = biological target: T2, p38α (Homo sapiens, UniProt Q16539); assay: as above
T2 construct: selectively degrades p38α, whereas exemplary PROTAC 46 (10-atom linker, phenyl attachment) selectively degrades p38δ in MDA-MB-231 cells; endogenous in cells; host or cells: MDA-MB-231
Method: as §1, §2

p38δ = biological target: T3, p38δ (Homo sapiens, UniProt O15264); assay: as above; details: for DC50: read-out: p38δDC50/nM [MDA-MB-231]
T3 construct: endogenous in cells; host or cells: MDA-MB-231 (intact cells for degradation; cleared cell lysate for CETSA)
T3 sequence (O15264 1-365): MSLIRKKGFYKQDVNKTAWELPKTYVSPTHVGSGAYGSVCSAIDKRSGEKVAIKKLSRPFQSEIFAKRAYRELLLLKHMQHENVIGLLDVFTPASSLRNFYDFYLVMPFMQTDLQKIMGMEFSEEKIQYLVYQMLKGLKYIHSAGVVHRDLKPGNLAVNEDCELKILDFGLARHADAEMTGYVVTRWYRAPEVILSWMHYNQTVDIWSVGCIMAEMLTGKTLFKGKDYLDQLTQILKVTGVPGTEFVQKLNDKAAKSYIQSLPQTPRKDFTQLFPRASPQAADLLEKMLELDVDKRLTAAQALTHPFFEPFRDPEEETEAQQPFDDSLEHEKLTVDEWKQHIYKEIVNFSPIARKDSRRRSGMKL
Method: as §1, §2

p38α and p38δ mRNA = assay: Quantitative real-time PCR in MDA-MB-231 cells; details: 250 nM, 24 hours
Method: FIGS. 13A, 13B, 13C, and 13D. Exemplary compounds 50 and 46 degrade p38 isoforms in a manner that is rapid, sustained, and proteasome-dependent. (A) MDA-MB-231 cells were either pre-treated or not with the proteasome inhibitor epoxomicin (1 μM) or the neddylation inhibitor MLN4924 (1 μM) for 30 minutes and subsequently treated with either vehicle (DMSO), exemplary compound 50 (250 nM), or exemplary compound 46 (250 nM) for 6 hours. (B) Quantitative real-time PCR was performed after 24 hours of treatment with either vehicle (DMSO), exemplary compound 50 (250 nM), or exemplary compound 46 (250 nM) in MDAMB-231 cells. […]
MDA-MB-231 cells were plated at 3×10^5 cells per well in a 6-well dish, allowed to adhere, and were treated with either vehicle (DMSO) or PROTAC (250 nM) for 24 hours. […] RNA pellet was washed twice with 75% EtOH and allowed to air dry for 15 minutes, after which RNA was dissolved in 25 μL of nuclease-free H2O. cDNA was synthesized from 4 μg of total RNA per condition according to the manufacturer's protocol (Applied Biosystems) and real-time PCR was performed with 800 nM primers, diluted with 4 μL SYBR Green Reaction Mix (Applied Biosystems). qRT-PCR samples were performed and analyzed in triplicate, from two independent experiments. […]

T2 sequence (Q16539 whole entry): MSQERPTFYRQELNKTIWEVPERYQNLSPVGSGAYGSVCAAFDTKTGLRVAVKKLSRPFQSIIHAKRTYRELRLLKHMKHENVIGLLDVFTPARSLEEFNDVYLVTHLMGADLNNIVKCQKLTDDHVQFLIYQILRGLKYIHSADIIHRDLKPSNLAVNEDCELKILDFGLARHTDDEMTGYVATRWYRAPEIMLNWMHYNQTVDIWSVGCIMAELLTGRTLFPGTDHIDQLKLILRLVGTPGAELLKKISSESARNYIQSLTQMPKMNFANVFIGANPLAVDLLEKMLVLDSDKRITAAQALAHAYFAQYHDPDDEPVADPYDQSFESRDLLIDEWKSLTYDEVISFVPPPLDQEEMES
T1 sequence (P08581 25-1390): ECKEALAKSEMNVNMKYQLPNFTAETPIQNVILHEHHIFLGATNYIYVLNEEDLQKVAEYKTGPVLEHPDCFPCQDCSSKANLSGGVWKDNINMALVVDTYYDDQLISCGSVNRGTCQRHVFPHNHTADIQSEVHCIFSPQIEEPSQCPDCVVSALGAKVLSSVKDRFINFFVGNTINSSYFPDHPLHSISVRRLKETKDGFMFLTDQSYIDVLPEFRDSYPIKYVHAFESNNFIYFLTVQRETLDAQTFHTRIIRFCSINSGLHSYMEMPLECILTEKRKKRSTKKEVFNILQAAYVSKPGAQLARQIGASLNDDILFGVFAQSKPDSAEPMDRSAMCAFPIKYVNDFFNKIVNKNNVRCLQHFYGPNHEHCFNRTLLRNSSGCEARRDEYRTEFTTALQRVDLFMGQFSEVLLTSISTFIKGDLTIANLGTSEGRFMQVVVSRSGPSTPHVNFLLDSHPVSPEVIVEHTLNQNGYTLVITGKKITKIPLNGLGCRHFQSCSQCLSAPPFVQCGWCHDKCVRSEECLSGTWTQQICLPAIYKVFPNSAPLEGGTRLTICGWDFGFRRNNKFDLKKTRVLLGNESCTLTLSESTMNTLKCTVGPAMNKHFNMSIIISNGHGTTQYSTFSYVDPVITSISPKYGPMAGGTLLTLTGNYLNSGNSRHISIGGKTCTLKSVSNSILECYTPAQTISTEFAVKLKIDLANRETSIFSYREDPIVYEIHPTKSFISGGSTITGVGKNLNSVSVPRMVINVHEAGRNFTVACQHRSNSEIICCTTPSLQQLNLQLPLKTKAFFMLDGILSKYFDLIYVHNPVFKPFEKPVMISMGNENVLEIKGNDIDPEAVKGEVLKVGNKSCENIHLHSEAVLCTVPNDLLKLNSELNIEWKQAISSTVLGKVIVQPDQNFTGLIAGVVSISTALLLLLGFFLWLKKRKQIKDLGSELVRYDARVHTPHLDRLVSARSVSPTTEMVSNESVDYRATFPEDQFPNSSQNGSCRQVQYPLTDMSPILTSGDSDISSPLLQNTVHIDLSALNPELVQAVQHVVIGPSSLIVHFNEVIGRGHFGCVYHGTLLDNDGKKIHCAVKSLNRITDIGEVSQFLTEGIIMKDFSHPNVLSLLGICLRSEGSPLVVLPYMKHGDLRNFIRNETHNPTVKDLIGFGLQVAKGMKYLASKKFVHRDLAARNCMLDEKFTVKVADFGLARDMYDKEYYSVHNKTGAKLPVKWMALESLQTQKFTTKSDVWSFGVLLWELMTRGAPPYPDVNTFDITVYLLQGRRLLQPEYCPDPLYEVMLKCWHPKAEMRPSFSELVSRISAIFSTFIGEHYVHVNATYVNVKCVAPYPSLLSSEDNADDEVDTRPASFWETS

Compound: COc1cc2c(Oc3ccc(NC(=O)C4(C(=O)Nc5ccc(F)cc5)CC4)cc3F)ccnc2cc1OCCCOCCCOCCC(=O)N[C@H](C(=O)N1C[C@H](O)C[C@H]1C(=O)NCc1ccc(-c2scnc2C)cc1)C(C)(C)C [Example 1]
- c-Met protein degradation (dose response) (cMET; ELISA): significant targeted degradation

Compound: COc1cc2c(Oc3ccc(NC(=O)C4(C(=O)Nc5ccc(F)cc5)CC4)cc3F)ccnc2cc1OCCOCCOCCOc1cc(-c2scnc2C)ccc1CNC(=O)[C@@H]1C[C@@H](O)CN1C(=O)[C@H](C(C)C)N1Cc2ccccc2C1=O [compound 46]
- DC50 (p38α): > 5000 nM
- Dmax (p38α): 33%
- Dmax (p38δ): 93%
- DC50 (p38δ): 84.9 nM
- change in mRNA for either p38 isoform (p38α and p38δ mRNA): no significant changes in mRNA

Compound: COc1cc2c(Oc3ccc(NC(=O)C4(C(=O)Nc5ccc(F)cc5)CC4)cc3F)ccnc2cc1OCCCCOCCCCOCC(=O)N[C@H](C(=O)N1C[C@H](O)C[C@H]1C(=O)NCc1ccc(-c2scnc2C)cc1)C(C)(C)C [compound 50, N-(3-fluoro-4-((7-(4-(4-(2-(((S)-1-((2S,4R)-4-hydroxy-2-((4-(4-methylthiazol-5-yl)benzyl)carbamoyl)pyrrolidin-1-yl)-3,3-dimethyl-1-oxobutan-2-yl)amino)-2-oxoethoxy)butoxy)buto-xy)-6-methoxyquinolin-4-yl)oxy)phenyl)-N-(4-fluorophenyl)cyclopropane-1,1-dicarboxa-mide]
- DC50 (cMET): 36 nM
- Dmax (cMET): 88%
- DC50 (p38α): 9.5 nM
- Dmax (p38α): 99%
- Dmax (p38δ): 18%
- DC50 (p38δ): > 5000 nM
- change in mRNA for either p38 isoform (p38α and p38δ mRNA): no significant changes in mRNA
